Assay results: paper PMC10112521, “High-throughput AR dimerization assay identifies androgen disrupting chemicals and metabolites” (Frontiers in Toxicology, 2023)
Counter-ions that a name gives are not always drawn. Like-named read-outs stand apart in the source and are kept apart here.

What was measured:
human AR [1] = biological target: T1, human AR (Homo sapiens, UniProt P10275); assay: AR2 assay, antagonist mode: disruption of R1881 (10 nM)-induced AR homodimerization in HepG2-AR2 cells; format: cell-based
T1 sequence (P10275 1-920) 1: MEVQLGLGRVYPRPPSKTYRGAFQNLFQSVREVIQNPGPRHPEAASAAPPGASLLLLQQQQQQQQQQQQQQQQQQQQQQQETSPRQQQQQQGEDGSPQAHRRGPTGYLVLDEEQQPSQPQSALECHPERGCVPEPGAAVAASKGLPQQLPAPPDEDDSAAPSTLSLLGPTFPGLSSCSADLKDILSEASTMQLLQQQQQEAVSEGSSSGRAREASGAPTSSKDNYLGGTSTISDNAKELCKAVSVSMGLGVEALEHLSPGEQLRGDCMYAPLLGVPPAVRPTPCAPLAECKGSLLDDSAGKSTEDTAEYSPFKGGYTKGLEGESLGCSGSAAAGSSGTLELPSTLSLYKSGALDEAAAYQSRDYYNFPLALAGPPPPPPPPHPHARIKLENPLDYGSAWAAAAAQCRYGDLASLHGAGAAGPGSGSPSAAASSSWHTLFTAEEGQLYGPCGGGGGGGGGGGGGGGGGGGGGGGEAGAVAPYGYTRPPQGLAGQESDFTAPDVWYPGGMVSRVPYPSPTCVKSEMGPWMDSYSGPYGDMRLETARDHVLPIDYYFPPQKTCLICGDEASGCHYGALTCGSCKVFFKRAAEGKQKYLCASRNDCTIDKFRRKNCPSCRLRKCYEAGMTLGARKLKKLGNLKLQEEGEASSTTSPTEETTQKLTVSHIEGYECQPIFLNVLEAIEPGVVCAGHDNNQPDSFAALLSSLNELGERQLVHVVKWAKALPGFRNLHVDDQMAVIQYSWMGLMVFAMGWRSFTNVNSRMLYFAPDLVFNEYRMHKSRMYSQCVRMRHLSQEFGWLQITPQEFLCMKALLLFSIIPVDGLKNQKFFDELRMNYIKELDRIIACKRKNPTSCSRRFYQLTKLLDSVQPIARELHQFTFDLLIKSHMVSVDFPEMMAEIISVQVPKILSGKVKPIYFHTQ
T1 sequence (P10275 1-920) 2: T1 sequence (P10275 1-920) 1

AR2 cells (HepG2-AR2) = assay: Alamar Blue (resazurin) post hoc cell viability / cytotoxicity assay in AR2 cells; conditions: spid Viability, sheet antagonist_fits; for hill_tp (Hill model top): 0 where win_model is Constant
Description: For antagonist mode and cytotoxicity data, well-level normalized response (resp) was calculated as: resp=100 * RLU−bval/pval−bval where pval is the median RLU value of the MEC positive control wells (minimum four wells).

human AR [2] = biological target: T1, human AR; assay: cell-based; set-up: species or system AR2 cells (HepG2-AR2); NanoLuc complementation AR homodimerization, antagonist mode, loss of agonist-induced luminescence, AC50 by Hill fit; conditions: hill_ga, antagonist mode, 10 nM agonist stimulus, 18 h, no CYP expressed
human AR [3] = biological target: T1, human AR; assay: AR2 assay, agonist mode: ligand-dependent AR homodimerization (NanoBiT luciferase complementation) in stable HepG2-AR2 cells; format: cell-based;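 as to hill tp: Log2 fold change of luminescence over DMSO vehicle wells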;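 as to max med: Log2 fold change of luminescence over DMSO vehicle wells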
[4] = system: full-length human AR and the receptor interacting domain (RID) of SRC1; set-up: method as in U.S. EPA, 2002b; conditions: cited from earlier work
AR = system: AR; set-up: method as in Kleinstreuer et al., 2017; conditions: 2017, cited from earlier work; for Agonist reference: AR agonist reference class ref Kleinstreuer et al.; for Antagonist reference: AR antagonist reference class ref Kleinstreuer et al.
[5] = spid AR_antagonist, sheet antagonist_fits
[6] = spid AR_antagonist, sheet antagonist_fits, 0 where win_model is Constant
[7] = sheet agonist_fits, Hill model top (efficacy), 0 given where win_model is Constant
[8] = sheet agonist_fits, maximum median response
[9] = sheet agonist_fits, winning concentration-response model (Constant, Hill, Gain-Loss)
[10] = activity call, 8 h, single protocol detects agonists and antagonists, invitroDBv3.4 ref U.S. EPA, 2002b
[11] = activity call, 16 h, single protocol detects agonists and antagonists, invitroDBv3.4 ref U.S. EPA, 2002b

Compound	max_med (maximum median response) (human AR [1]; [5])	win_model (winning concentration-response model) (human AR [1]; [5])	hill_gw (Hill model slope) (human AR [1]; [6])	hill_tp (Hill model top) (human AR [1]; [6])	max_med (maximum median response) (AR2 cells (HepG2-AR2))	hill_tp (Hill model top) (AR2 cells (HepG2-AR2))	hill_tp (human AR [3]; [7])	max_med (human AR [3]; [8])	win_model (human AR [3]; [9])	Agonist reference (AR)	Antagonist reference (AR)	Agonist reference (AR; Supplementary Table S1)	Antagonist reference (AR; Supplementary Table S1)	other results
O=[N+]([O-])c1ccc(O)c([N+](=O)[O-])c1 [2,4-Dinitrophenol]	41.2653	Hill	1.229	60.4053	17.6561	19.403	0	0.06149	Constant	–	–	–	–	AC50 (human AR [2]; spid=Bgal): 61.4 µM; AC50 (human AR [2]; spid=No_RNA): 35.8 µM
C[C@]12CCC(=O)C=C1CC[C@@H]1[C@@H]2CC[C@]2(C)C(=O)CC[C@@H]12 [4-Androstene-3,17-dione]	–	–	–	–	19.1138	19.333	–	–	–	Moderate	Inactive	Moderate	–	OT 8 hr [4, 10]: 1; OT 16 hr [4, 11]: 1
C[C@]12C=CC3=C4CCC(=O)C=C4CC[C@H]3[C@@H]1CC[C@@H]2O [17beta-Trenbolone]	–	–	–	–	21.7453	17.3642	–	–	–	Strong	–	Strong	–	OT 8 hr [4]: 1; OT 16 hr [4]: 1; hill_gw (Hill model slope) (human AR [1]): 6.214; hill_tp (Hill model top) (human AR [1]): 20.2687; max_med (maximum median response) (human AR [1]): 20.7317; win_model (winning concentration-response model) (human AR [1]): Gain-Loss; AR2 agonist (human AR [3]): 1; activity call in agonist mode (human AR [3]): tested active; hill_gw (human AR [3]): 0.7579; hill_tp (human AR [3]): 6.165; max_med (human AR [3]): 6.198; win_model (human AR [3]): Hill
CC/C(=C(\c1ccc(O)cc1)c1ccc(OCCN(C)C)cc1)c1ccccc1 [Afimoxifene (4-Hydroxytamoxifen)]	104.395	Hill	3.209	105.037	99.7378	99.9149	0	0.04316	Constant	–	–	–	–	AC50 (human AR [2]; spid=Bgal): 7.28 µM; AC50 (human AR [2]; spid=No_RNA): 5.39 µM
CCCCOC(=O)c1ccccc1C(=O)OCc1ccccc1 [Butylbenzylphthalate]	–	–	–	–	15.4413	12.3573	–	–	–	–	–	Inactive	–	–
CCN(CC)CCOc1ccc(/C(=C(/Cl)c2ccccc2)c2ccccc2)cc1 [Enclomiphene hydrochloride]	104.097	Hill	2.002	106.442	99.6641	101.238	0	0.05981	Constant	–	–	–	–	–
COP(=S)(OC)Oc1ccc([N+](=O)[O-])c(C)c1 [Fenitrothion]	–	–	–	–	18.684	19.2014	–	–	–	–	Strong	–	Strong	–
CC(C)(C)NC(=O)[C@H]1CC[C@H]2[C@@H]3CC[C@H]4NC(=O)C=C[C@]4(C)[C@H]3CC[C@]12C [Finasteride]	–	–	–	–	14.3947	0	–	–	–	Inactive	–	–	–	–
CC(C)C(=O)Nc1ccc([N+](=O)[O-])c(C(F)(F)F)c1 [Flutamide]	–	–	–	–	35.756	43.7281	–	–	–	Inactive	Moderate	–	Moderate	–
CC(C)(O)C(=O)Nc1ccc([N+](=O)[O-])c(C(F)(F)F)c1 [Hydroxyflutamide]	26.302	Hill	8	19.7734	16.5535	15.0961	5.723	5.832	Hill	–	Strong	–	Strong	OT 8 hr [4, 10]: 1; OT 16 hr [4, 11]: 1; activity call in antagonist mode (human AR [1]; 128-chemical evaluation, 18 h, active = maximal median response >3*bmad and AC50 at least 0.5 log units below cytotoxicity AC50): tested inactive; AR2 antagonist (human AR [1]; activity call, antagonist mode, 18 h): 0; Emax (human AR [1]; read-out: antagonist response / maximum efficacy (% inhibition)): > 90%; activity call in agonist mode (human AR [3]; 128-chemical evaluation, 18 h, active = maximal median response >5*bmad): tested active; hill_gw (human AR [3]; sheet agonist_fits, Hill model gain slope (Hill coefficient), 0 given where win_model is Constant): 0.8082
